Experimental data: patent US12630516B2, “Compounds” (NRG Therapeutics Ltd., priority 2020, dated 2026)
Values after ≈ are worked out from the molar mass of the structure shown. Each block holds one molecule with its values, some of them ahead of it.

Key:
[1] = test system: mPTP; assay: mPTP activity (Ca2+ retention, Fluo5N FLIPR) assay in isolated rat liver mitochondria; assay type: biochemical; settings: average value from multiple experiments (n ≥ 2)
Source text: Pharmacological inhibition or modulation of the mPTP can be measured in well characterised ‘Ca^2+ retention’ assays performed in isolated mitochondria. In vitro, isolated mitochondria rapidly sequester exogenous Ca^2+ until the intramitochondrial Ca^2+ concentration reaches the threshold for mPTP activation. Once the pore is activated, mitochondrial integrity is compromised and the stored Ca^2+ is released. The distribution of Ca^2+ between extra- and intra-mitochondrial compartments can be measured in real time with the use of membrane-impermeant Ca^2+ sensitive fluorescent dyes. Depending on the configuration of the assay, inhibition or modulation of the mPTP either delays the opening of the pore or increases the concentration of Ca^2+ required to induce mPTP opening.
MPTP activity was measured in mitochondria freshly isolated from female Sprague Dawley (250 to 300 gram) rat livers using the following method. Cervical dislocation was performed on the rat. The liver was then perfused in-situ with ˜40 ml cold Dulbecco's Phosphate Buffered Saline (DPBS) prior to dissection and transferred into 30 ml Isolation Buffer (250 mM Sucrose, 10 mM KCl, 1 mM EGTA, 1 mM EDTA, 25 mM HEPES, adjusted to pH 7.5 with 1M NaOH). Each lobe of the liver was then removed from the buffer, minced using tweezers and a scalpel into ˜5 mm pieces then transferred into a 50 ml Potterton dounce homogenization tube on ice containing 30 ml ice-cold centrifugation buffer (300 mM Trehalose, 25 mM HEPES, 1 mM EGTA, 1 mM EDTA, 10 mM KCl, adjusted to pH 7.5 with 1M NaOH and supplemented with 0.1% bovine serum albumin (BSA) and complete protease inhibitor cocktail (one tablet of inhibitor per 50 mls of buffer). Homogenisation was carried out using a teflon pestle at 1800 rpm. The slurry was centrifuged at 800 g for 10 min at 4° C., then the supernatant centrifuged at 10,000 g for 10 min. The pellet was washed once with FLIPR assay buffer (75 mM Mannitol, 25 mM Sucrose, 5 mM Potassium Phosphate Monobasic, 20 mM Tr is base, 100 mM KCl, 0.1% BSA adjusted to pH 7.4 with 5M HCl) centrifuged again, then resuspended in FLIPR assay buffer to a concentration of 8.8 mg/ml protein.
Tested compounds (10 mM stock in DMSO) were serially diluted in DMSO in half log steps to generate 10 test concentrations (final concentrations in assay 30 μM to 1 nM). An intermediate dilution of 5 μl DMSO samples into 247 μl FLIPR assay buffer was carried out prior to transfer of 5 μl into duplicate wells of a 384 well polypropylene assay plate. Control wells were 0.5% (v/v) DMSO and 5 μM cyclosporin A.
A stock mitochondria/Fluo5N assay solution was prepared in 5.6 ml FLIPR assay buffer (at RT) supplemented with succinate disodium salt (10 mM), rotenone (1 μM), Fluo5N pentapotassium salt (2 μM) and 1 ml mitochondria suspension, then transferred (15 μl) into the assay plate containing test compounds and incubated for 10 min at RT. Assay plates were then transferred to a FLIPR Tetra plate reader (Molecular Devices). Dye fluorescence was then measured every 3 sec for a total of 10 min. After 12 sec, a 2.5 μl bolus of CaCl2 (75 μM) was added from a source plate containing 675 μM CaCl2 in FLIPR assay buffer. IC50 values for tested compounds were calculated using the fluorescence value collected at the 10 min timepoint with % inhibition calculated using the DMSO control and cyclosporin A values as […] respectively.

[2] = PBS and FaSSIF solubility; assay type: physicochemical; settings: for solubility at 2 h: FaSSIF, kinetic from dmso stock, Fasted state simulated intestinal fluid, 2 hr at 25° C.
Procedure: Test compounds were prepared as 10 mM stocks in DMSO and 15 μl samples transferred in duplicate into 1.5 mL glass flat bottom vials (BioTech Solutions). Fasted state simulated intestinal fluid (FaSSIF) or PBS (pH 7.4) was added to each vial to final volume of 500 μl. One PTFE encapsulated stir stick (V&P Scientific) was placed in each vial before sealing with PTFE/SIL plugs (BioTech Solutions). Vials were shaken at 1100 rpm for 2 hr at 25° C. Samples were then filtered through MultiScreen Solvinert filter plates (Millipore) via vacuum filtration. Aliquots of filtrate (5 μl) plus 5 μl DMSO were diluted in 490 μl 50% acetonitrile in water containing internal standard. The filtrate was analysed and quantified against a standard of known concentration using LC-MS/MS. Solubility values of the test compound and control compound were calculated as follows: [Sample]=(Area ratiossample*INJ VOL STD*DFSample*[STD])/(Area ratio STD*INJ VOLSample).

[3] = Hepatocyte clearance assay, primary rat hepatocytes; assay type: in vitro ADME; settings: average value from two experiments
Procedure: (§1) In vitro clearance studies were performed in primary rat and human hepatocytes (BioIVT). Vials of cryopreserved rat or human hepatocytes were thawed in a 37° C. water bath for 2 min. Cells were transferred into thawing medium (Williams' Medium E containing 30% Percoll, 1×GlutaMAX-1, 15 mM HEPES, 5% fetal bovine serum (FBS), 4 μg/ml insulin, 1 μM dexamethasone), centrifuged at 100 g for 10 min then resuspended in culture medium (Leibovitz's L-15 Medium) at a concentration of 0.5×10^6 viable cells/mL (number of viable cells assessed using AO/PI staining). Hepatocytes (198 μL) were transferred into wells of a 96-well non-coated plate and placed in a 37° C. incubator for 10 min. Test compound solutions were prepared from 10 mM stocks in DMSO, diluted to 100 μM in 50% (v/v in water) acetonitrile. Test compound samples (2 μl) were added to each well of hepatocytes and incubated at 37° C. […] Peak areas were determined from extracted ion chromatograms. The slope value, k, was determined by linear regression of the natural logarithm of the remaining percentage of the parent drug vs. incubation time curve. The in vitro half-life (in vitro t½) was determined from the slope value: in vitro t½=0.693/k. […]

[4] = Hepatocyte clearance assay, primary human hepatocytes; assay type: in vitro ADME; settings: average value from two experiments
Procedure: as §1

mPTP Rat liver pIC50 [1]: 6.3
SMILES: Cc1n[nH]c2cc(/C=C/C(=O)N[C@@H]3CCCC[C@H]3C)ccc12 (racemic) [Example 43, Racemic-(E)-3-(3-methyl-1H-indazol-6-yl)-N-((1R,2R)-2-methylcyclohexyl)acrylamide]

mPTP Rat liver pIC50 [1]: 7.7
solubility at 2 h [2]: 9.2 µM (≈ 3.2 µg/mL)
hepatocyte CLint at 1 µM ([3]; primary rat hepatocytes (cryopreserved), read-out: Rat heps Clint uL/min/10^6 cells): 37.9 µL/min/1e6 cells
hepatocyte CLint at 1 µM ([4]; primary human hepatocytes (cryopreserved), read-out: Human heps Clint uL/min/10^6 cells): 9.4 µL/min/1e6 cells
SMILES: Cc1n[nH]c2cc(/C=C/C(=O)N[C@H]3c4ccccc4OC[C@@H]3C)ccc12 (single isomer, unassigned) [Example 65c]

Solubility PBS uM (pH 7.4) ([2]; PBS pH 7.4, 2 hr at 25° C.): 0.9 uM
Rat heps Clint uL/min/10^6 cells [3]: 89 uL/min/10^6 cells
Human heps Clint uL/min/10^6 cells [4]: 13 uL/min/10^6 cells
SMILES: Cc1c(F)cccc1NC(=O)/C=C/c1ccc2cn[nH]c2c1 [Comparative Example 1, (E)-N-(2-methyl-3-fluorophenyl)-3-(1H-indazol-6-yl)acrylamide, reference compound]

solubility at 2 h [2]: 18 µM (≈ 5.62 µg/mL)
SMILES: Cc1c(F)cccc1NC(=O)/C=C/c1ccc2oc(=O)[nH]c2c1 [Example 6, (E)-N-(3-fluoro-2-methylphenyl)-3-(2-oxo-2,3-dihydrobenzo[d]oxazol-5-yl)acrylamide]

mPTP Rat liver pIC50 [1]: 6.6
SMILES: O=C(/C=C/c1cc2[nH]nnc2cc1F)NC1CCc2ccccc21 (stereo not drawn) [Example 27, (E)-N-(2,3-dihydro-1H-inden-1-yl)-3-(5-fluoro-1H-benzo[d][1,2,3]triazol-6-yl) acrylamide]

mPTP Rat liver pIC50 [1]: 6.7
SMILES: O=C(/C=C/c1ccc2c(C(F)(F)F)n[nH]c2c1)NC1CCc2ccccc21 (stereo not drawn) [Example 28, (E)-N-(2,3-dihydro-1H-inden-1-yl)-3-(3-(trifluoromethyl)-1H-indazol-6-yl) acrylamide]

mPTP Rat liver pIC50 [1]: 8.2
SMILES: CO[C@H]1Cc2ccccc2[C@@H]1NC(=O)/C=C/c1ccc2c(Cl)n[nH]c2c1 [Example 72, (E)-3-(3-chloro-1H-indazol-6-yl)-N-((1S,2S)-2-methoxy-2,3-dihydro-1H-inden-1-yl)acrylamide]
